Reference: patent US20230265116A1, “DEGRADATION OF (EGFR) BY CONJUGATION OF EGFR INHIBITORS WITH E3 LIGASE LIGAND AND METHODS OF USE” (BEIGENE, LTD., priority 2020, published 2023)

Legend:
Format in all cases: cell-based
[1] = target: T1, EGFR L858R/T790M/C797S (BaF3-LTC cells) (Homo sapiens, UniProt P00533, C797S/L858R/T790M); test: EGFR degradation HTRF assay, BaF3-LTC cells; details: BaF3-LTC, 16h treatment; for Dmax: maximum percentage of degradation, read-out: LTC Dmax (%); for DC50: read-out: LTC DC50
T1 construct: expressed in transfected cells; host or cells: BaF3
Summary of the method: (§1)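 EGFR remaining after a 16 h, 37 °C exposure (8 doses, 5-fold steps from 10 uM final, 0.2% DMSO) was quantified by HTRF antibodies in cell lysate. Percent inhibition relative to DMSO control was fitted by four-parameter logistic to give DC50; Dmax denotes maximal degradation.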

[2] = target: T2, EGFR (HCC827 cells) (Homo sapiens, UniProt P00533, DEL746-750); test: EGFR degradation HTRF assay, HCC827 cells; details: HCC827, 16h treatment; for Dmax: maximum percentage of degradation
T2 construct: endogenous in cells; host or cells: HCC827
Summary of the method: as §1

[3] = target: T3, EGFR L858R/T790M (H1975-clone #36, homozygous) (Homo sapiens, UniProt P00533, L858R/T790M); test: EGFR degradation HTRF assay, H1975-clone #36 cells; details: H1975 #36, 16h treatment; for Dmax: NCI-H1975, maximum percentage of degradation
T3 construct: designed to specifically target WT EGFR but preserve the L858R/T790M copy; host or cells: H1975-clone #36
Summary of the method: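 Eight-point, 5-fold series starting at 10 uM (0.2% DMSO) applied for 16 h, 37 °C, to a WT-EGFR-knockout H1975 clone carrying only L858R/T790M. Lysates read by HTRF overnight. Degradation percentage relative to DMSO control fitted for DC50, with Dmax as maximum degradation.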

[4] = tested on: EGFR Del19/T790M/C797S (BaF3-DTC cells); test: EGFR degradation HTRF assay, BaF3-DTC cells; details: 16h treatment; for DTC Dmax (%): maximum percentage of degradation; for DC50: read-out: DTC DC50
Summary of the method: as §1

[5] = target: T4, EGFR WT (BaF3 WT cells) (Homo sapiens, UniProt P00533); test: EGFR degradation HTRF assay, BaF3 WT cells; details: BaF3 WT, 16h treatment; for Dmax: maximum percentage of degradation, read-out: WT Dmax (%)
T4 construct: expressed in transfected cells; host or cells: BaF3
Description: BaF3 WT(wild type), BaF3-LTC(L858R/T790M/C797S) and BaF3-DTC(Del19/T790M/C797S) cells are treated with compounds diluted in 0.2% DMSO cell culture medium and incubate for 16h, 37° C., 5% CO2, H1975-#36, H1975-#28, H1975-#23 and HCC827 cells are treated with compounds diluted in 0.2% DMSO cell culture medium on day 2, incubate for 16h, 37° C., 5% CO2.the final concentriation of compounds in all assay is start with 10 uM, 5-fold dilution, total 8 doses were included.
After 16h treatment, add HTRF lysis buffer to each well; seal the plate and incubate 1 hour at room temperature on a plate shaker; Once the cells are lysed, 16 μL of cell lysate are transferred to a PE 384-well HTRF detection plate; 4 μL of pre-mixed HTRF antibodies are added to each well; Cover the plate with a plate sealer, spin 1000 rpm for 1 min, Incubate overnight at room temperature; Read on BMG PheraStar with HTRF protocol (337 nm-665 nm-620 nm).
The inhibition (degradation) percentage of the compound was calculated by the following equation: Inhibition percentage of Compound=100-100×(Signal-low control)/(High control-low control), wherein signal=each test compound group
High control=Cell group with added DMSO and without compound, indicating microplate readings without EGFR degradation;
Dmax is the maximum percentage of inhibition (degradation).
The IC50 (DC50) value of a compound can be obtained by fitting the following equation
Y=Bottom+(TOP−Bottom)/(1+((IC50/X)^hillslope))
Wherein, X and Y are known values, and IC50, Hillslope, Top and Bottom are the parameters obtained by fitting with software. Y is the inhibition percentage (calculated from the equation), X is the concentration of the compound; IC50 is the concentration of the compound when the 50% inhibition is reached. The smaller the IC50 value is, the stronger the inhibitory ability of the compound is. Vice versa, the higher the IC50 value is, the weaker the inhibitory ability of the compound is; Hillslope represents the slope of the fitted curve, generally around 1*; Bottom represents the minimum value of the curve obtained by data fitting, which is generally 0%±20%; Top represents the maximum value of the curve obtained by data fitting, which is generally 100%±20%. The experimental data were fitted by calculating and analyzing with Dotmatics data analysis software.

T1 sequence (P00533 25-1210 T790M/C797S/L858R): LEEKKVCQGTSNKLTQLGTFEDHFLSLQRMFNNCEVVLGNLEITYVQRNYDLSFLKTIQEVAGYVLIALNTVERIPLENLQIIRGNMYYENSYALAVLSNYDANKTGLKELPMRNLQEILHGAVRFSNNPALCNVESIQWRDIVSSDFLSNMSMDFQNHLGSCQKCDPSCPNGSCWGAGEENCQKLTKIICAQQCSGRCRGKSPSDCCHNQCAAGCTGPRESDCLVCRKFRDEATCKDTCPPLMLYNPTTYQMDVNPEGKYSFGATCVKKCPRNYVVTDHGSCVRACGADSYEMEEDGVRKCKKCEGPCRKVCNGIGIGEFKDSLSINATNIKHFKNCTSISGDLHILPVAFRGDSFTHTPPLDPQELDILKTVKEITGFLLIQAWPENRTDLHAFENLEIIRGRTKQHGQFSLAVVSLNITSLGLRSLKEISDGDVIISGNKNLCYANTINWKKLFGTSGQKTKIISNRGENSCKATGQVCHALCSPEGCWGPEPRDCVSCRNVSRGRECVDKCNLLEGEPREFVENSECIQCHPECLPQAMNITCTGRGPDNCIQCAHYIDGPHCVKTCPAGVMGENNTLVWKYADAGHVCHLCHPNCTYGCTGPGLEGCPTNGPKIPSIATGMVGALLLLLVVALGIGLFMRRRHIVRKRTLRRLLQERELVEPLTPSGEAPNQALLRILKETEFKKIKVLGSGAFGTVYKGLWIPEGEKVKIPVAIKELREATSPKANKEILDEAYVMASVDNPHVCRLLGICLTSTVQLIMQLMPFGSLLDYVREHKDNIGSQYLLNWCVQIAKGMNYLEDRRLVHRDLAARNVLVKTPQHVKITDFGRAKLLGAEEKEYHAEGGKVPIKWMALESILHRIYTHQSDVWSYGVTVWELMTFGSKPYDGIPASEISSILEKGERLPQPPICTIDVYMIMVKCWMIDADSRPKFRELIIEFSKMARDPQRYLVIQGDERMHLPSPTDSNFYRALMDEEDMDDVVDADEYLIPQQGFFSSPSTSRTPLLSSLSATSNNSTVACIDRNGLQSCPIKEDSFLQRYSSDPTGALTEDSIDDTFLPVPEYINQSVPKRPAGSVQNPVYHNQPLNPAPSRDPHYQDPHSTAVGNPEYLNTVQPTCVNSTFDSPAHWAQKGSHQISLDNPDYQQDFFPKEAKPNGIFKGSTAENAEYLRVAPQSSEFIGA
T4 sequence (P00533 25-1210): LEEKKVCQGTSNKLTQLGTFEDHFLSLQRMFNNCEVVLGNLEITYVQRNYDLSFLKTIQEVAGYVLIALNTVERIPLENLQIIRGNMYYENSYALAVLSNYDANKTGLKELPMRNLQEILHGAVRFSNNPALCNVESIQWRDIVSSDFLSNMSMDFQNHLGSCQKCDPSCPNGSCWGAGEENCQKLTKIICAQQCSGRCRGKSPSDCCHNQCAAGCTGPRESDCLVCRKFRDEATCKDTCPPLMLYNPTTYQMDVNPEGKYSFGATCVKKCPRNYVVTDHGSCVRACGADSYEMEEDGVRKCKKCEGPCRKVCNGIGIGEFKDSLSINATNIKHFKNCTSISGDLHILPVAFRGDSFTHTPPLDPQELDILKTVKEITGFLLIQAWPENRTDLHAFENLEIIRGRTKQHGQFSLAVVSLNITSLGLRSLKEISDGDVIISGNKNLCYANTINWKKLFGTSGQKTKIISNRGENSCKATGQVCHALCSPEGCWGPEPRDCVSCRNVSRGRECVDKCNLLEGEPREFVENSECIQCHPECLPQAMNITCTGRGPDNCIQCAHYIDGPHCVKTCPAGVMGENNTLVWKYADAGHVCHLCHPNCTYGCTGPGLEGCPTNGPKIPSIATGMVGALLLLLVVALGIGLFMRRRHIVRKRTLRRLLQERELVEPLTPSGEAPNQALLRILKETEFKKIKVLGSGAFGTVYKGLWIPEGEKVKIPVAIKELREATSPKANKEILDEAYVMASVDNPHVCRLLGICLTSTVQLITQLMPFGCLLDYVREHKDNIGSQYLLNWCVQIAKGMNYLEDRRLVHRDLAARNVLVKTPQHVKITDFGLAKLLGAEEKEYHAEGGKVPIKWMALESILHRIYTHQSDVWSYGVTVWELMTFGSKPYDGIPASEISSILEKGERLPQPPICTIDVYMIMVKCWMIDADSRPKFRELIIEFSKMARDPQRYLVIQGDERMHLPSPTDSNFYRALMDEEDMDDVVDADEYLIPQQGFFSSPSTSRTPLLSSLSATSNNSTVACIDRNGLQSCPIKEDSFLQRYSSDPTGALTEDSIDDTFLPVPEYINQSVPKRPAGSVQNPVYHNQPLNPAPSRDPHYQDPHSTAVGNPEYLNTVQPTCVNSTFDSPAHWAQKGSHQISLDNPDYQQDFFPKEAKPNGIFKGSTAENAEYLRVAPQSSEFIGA
T2 sequence (P00533 with tags, fused parts or gaps DEL746-750): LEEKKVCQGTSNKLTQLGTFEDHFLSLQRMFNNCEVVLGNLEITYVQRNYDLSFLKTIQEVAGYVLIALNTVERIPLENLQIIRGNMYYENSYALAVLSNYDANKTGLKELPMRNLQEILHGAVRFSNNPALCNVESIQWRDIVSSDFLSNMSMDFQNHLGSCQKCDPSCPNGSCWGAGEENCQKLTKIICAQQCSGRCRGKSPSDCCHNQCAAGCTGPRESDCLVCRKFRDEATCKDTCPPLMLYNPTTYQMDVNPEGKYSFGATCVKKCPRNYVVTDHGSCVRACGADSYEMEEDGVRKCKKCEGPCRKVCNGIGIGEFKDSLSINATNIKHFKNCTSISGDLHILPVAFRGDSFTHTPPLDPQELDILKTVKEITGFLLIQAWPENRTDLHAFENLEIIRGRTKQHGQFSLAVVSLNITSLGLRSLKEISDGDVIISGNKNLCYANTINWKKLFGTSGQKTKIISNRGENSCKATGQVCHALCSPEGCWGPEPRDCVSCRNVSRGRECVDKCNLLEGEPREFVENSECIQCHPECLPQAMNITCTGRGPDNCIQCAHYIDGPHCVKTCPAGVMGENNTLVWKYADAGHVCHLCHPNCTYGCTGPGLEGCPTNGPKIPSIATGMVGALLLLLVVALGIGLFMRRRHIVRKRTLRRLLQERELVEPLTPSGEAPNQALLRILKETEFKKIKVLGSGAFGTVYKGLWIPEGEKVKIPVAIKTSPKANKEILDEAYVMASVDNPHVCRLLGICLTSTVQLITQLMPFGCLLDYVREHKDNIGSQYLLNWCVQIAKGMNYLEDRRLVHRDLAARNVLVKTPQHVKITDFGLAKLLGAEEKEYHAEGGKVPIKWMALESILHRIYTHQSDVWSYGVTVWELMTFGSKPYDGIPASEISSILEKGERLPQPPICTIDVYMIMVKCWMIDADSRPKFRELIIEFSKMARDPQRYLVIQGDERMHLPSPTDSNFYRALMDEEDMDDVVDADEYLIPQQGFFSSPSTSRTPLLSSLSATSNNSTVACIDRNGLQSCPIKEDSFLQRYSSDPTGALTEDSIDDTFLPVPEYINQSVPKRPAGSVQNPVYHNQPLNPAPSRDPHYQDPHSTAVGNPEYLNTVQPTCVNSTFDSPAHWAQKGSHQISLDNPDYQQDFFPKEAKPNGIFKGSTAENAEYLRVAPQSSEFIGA
T3 sequence (P00533 25-1210 T790M/L858R): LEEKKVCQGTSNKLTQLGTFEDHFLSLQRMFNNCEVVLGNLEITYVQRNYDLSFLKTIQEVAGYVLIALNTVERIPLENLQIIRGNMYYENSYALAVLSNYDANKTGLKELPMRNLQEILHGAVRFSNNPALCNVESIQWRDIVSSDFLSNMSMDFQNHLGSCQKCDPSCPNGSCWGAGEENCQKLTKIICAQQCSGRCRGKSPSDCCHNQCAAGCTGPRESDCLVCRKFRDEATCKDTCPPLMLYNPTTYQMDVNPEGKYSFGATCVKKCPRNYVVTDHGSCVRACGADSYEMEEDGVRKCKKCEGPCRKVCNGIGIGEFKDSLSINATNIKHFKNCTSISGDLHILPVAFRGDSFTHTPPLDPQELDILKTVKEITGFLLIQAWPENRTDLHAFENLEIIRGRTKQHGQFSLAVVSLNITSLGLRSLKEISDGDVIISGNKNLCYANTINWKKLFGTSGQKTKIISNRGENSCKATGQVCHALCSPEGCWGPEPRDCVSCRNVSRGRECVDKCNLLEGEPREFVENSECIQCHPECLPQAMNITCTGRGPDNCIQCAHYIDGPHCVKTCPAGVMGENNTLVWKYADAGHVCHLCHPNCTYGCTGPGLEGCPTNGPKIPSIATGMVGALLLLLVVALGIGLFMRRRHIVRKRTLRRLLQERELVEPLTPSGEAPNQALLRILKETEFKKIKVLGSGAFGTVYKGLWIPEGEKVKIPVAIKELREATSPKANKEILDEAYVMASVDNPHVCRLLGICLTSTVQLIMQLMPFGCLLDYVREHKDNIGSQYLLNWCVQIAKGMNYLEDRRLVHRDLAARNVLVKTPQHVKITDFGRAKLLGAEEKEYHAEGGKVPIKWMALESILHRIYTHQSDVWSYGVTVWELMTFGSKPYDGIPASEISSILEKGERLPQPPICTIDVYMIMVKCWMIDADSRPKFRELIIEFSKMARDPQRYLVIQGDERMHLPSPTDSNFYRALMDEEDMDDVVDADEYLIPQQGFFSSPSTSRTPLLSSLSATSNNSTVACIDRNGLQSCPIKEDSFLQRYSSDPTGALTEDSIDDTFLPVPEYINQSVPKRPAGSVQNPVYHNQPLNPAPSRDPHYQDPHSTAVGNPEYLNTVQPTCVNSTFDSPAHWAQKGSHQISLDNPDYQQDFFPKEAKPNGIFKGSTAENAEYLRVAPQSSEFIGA

| Dmax [1] | DC50 [1] | DC50 [2] | Dmax [2] | DC50 [3] | Dmax [3] | DC50 [4] | DC50 [5] | Dmax [5] | Compound | DTC Dmax (%) [4] |
| --- | --- | --- | --- | --- | --- | --- | --- | --- | --- | --- |
| 92.1% | 7.04 nM | 5.33 nM | 81% | 4.69 nM | 99.9% | 3.72 nM | > 10000 nM | 11.7% | CP(C)(=O)c1c(Nc2nc(Nc3ccc(N4CCN(C5CN(CC6CN(c7ccc8c(c7)C(=O)N(C7CCC(=O)NC7=O)C8=O)C6)C5)CC4)c(F)c3)ncc2Br)ccc2nccnc12 (stereo not shown) [Example 259, 5-(3-((3-(4-(4-((5-bromo-4-((5-(dimethylphosphoryl)quinoxalin-6-yl)amino)pyrimidin-2-yl)amino)-2-fluorophenyl)piperazin-1-yl)azetidin-1-yl)methyl)azetidin-1-yl)-2-(2,6-dioxopiperidin-3-yl)isoindoline-1,3-dione] | 95.97% |
| 81.2% | 21.6 nM | 6.2 nM | 80.8% | 8.6 nM | 71% | 15.1 nM | > 10000 nM | 26.2% | CCc1cc(Nc2ncc(Br)c(Nc3ccc4nccnc4c3P(C)(C)=O)n2)c(OC)cc1N1CCC(N2CCN(CCC3CCN(c4ccc(C5CCC(=O)NC5=O)c(C#N)c4)CC3)CC2)CC1 (stereo not shown) [Example 34, 5-(4-(2-(4-(1-(4-((5-bromo-4-((5-(dimethylphosphoryl)quinoxalin-6-yl)amino)pyrimidin-2-yl)amino)-2-ethyl-5-methoxyphenyl)piperidin-4-yl)piperazin-1-yl)ethyl)piperidin-1-yl)-2-(2,6-dioxopiperidin-3-yl)benzonitrile] | 82.04% |
| 90.5% | 36.4 nM | 3.95 nM | 74.3% | > 156 nM | 49% | 18.2 nM | > 10000 nM | 41.9% | CCc1cc(Nc2ncc(Br)c(Nc3ccc4nccnc4c3P(C)(C)=O)n2)c(OC)cc1N1CCC(N2CCN(CCCCCc3ccc(C4CCC(=O)NC4=O)cc3)CC2)CC1 (stereo not shown) [Example 7, 3-(4-(5-(4-(1-(4-((5-bromo-4-((5-(dimethylphosphoryl)quinoxalin-6-yl)amino)pyrimidin-2-yl)amino)-2-ethyl-5-methoxyphenyl)piperidin-4-yl)piperazin-1-yl)pentyl)phenyl)piperidine-2,6-dione] | 95.15% |
| 86.2% | 168 nM | 3.2 nM | 84% | 11.5 nM | 85% | 53.7 nM | > 10000 nM | 15.3% | COc1cc(N2CCC(N3CCN(C(=O)CCCCN4CCN(c5ccc6c(c5)C(=O)N(C5CCC(=O)NC5=O)C6=O)CC4)CC3)CC2)ccc1Nc1ncc(Cl)c(Nc2ccccc2N(C)S(C)(=O)=O)n1 (stereo not shown) [Example 128, N-(2-((5-chloro-2-((4-(4-(4-(5-(4-(2-(2,6-dioxopiperidin-3-yl)-1,3-dioxoisoindolin-5-yl)piperazin-1-yl)pentanoyl)piperazin-1-yl)piperidin-1-yl)-2-methoxyphenyl)amino)pyrimidin-4-yl)amino)phenyl)-N-methylmethanesulfonamide] | 99.67% |
